Measured values published in publication PMC9886550, “Molecular mechanism of topoisomerase poisoning by the peptide antibiotic albicidin” (Nature Catalysis, 2023).
Where “and” joins values, the source holds several entries; their conditions need not be identical. Equal entries are not always repeated.

Assays:
Assay type in all cases: biochemical
[1] = target: E. coli Topo IV (Escherichia coli, UniProt P0AFI2+P20083); experiment: E. coli Topo IV relaxation assay; conditions: tested 0.1, 1, 10, 100 µM
Sequence of E. coli Topo IV (P0AFI2 whole entry): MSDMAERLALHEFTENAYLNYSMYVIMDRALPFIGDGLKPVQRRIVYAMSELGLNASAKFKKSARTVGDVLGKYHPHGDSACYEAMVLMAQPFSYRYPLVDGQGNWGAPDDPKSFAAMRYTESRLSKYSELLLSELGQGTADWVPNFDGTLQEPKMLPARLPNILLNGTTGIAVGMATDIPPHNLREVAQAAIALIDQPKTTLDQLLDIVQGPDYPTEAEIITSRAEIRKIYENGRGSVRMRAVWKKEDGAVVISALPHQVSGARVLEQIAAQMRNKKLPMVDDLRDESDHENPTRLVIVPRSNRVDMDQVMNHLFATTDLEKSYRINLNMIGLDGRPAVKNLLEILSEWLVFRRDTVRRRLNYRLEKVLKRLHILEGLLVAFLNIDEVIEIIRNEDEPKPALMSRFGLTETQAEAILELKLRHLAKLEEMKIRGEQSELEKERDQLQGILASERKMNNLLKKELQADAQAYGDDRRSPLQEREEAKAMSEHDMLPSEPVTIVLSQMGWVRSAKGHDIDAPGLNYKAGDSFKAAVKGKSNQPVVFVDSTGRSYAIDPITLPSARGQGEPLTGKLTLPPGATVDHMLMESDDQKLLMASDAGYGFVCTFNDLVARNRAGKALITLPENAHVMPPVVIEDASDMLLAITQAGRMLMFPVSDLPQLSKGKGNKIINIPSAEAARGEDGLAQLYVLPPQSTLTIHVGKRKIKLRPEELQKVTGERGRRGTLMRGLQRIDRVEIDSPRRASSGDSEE
Sequence of E. coli Topo IV (P20083 whole entry): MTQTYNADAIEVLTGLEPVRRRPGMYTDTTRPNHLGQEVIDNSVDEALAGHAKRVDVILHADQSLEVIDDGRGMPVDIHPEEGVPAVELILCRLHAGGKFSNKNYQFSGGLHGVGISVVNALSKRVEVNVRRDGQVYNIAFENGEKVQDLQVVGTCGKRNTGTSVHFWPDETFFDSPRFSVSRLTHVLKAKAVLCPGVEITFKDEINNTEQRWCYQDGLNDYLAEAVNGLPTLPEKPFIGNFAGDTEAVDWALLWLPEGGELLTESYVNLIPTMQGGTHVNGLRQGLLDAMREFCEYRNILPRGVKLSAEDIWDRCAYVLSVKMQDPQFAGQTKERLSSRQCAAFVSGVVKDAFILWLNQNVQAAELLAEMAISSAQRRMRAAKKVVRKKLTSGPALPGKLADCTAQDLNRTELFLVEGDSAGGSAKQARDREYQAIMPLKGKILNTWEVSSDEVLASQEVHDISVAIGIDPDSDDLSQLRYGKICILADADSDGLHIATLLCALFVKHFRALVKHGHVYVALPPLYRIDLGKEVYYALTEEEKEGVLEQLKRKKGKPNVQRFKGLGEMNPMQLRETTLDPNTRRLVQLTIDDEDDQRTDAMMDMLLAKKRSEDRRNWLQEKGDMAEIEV
Protocol: E. coli Topo IV relaxation assays were set up in the same way as supercoiling assays with some modifications. The substrate was negatively supercoiled DNA, E. coli Topo IV relaxation buffer (50 mM K-HEPES pH 7.6, 100 mM potassium glutamate, 10 mM magnesium acetate, 10 mM DTT, 1 mM ATP and 0.05 mg ml^−1 BSA) and reactions were incubated for 1 h. Reactions were stopped in the same way as supercoiling assays.
(§1) Results were visualized by agarose gel electrophoresis: 1% agarose Tris-acetate-EDTA (TAE) gels were run without ethidium bromide (supercoiling) or with 10 µg ml^−1 ethidium bromide (cleavage) at 8 V cm^−1.
Supplementary Figure 11. Activity of albicidin and Albi-1/2/3 on E. coli topoisomerase IV. a. Plasmid relaxation activity of E. coli topo IV in the presence of albicidin, Albi-1, Albi-2 and Albi-3. First lane: negatively supercoiled pBR322; second lane: innate relaxation activity of E. coli topo IV (12.5 nM); third lane: effect of 20 µM CFX; subsequent lanes: effect of increasing compound concentration (0.1, 1, 10, 100 […]
higher concentration. b. Cleavage activity of E. coli topo IV in the presence of albicidin, Albi-1, Albi-2 and Albi-3. First lane: negatively supercoiled pBR322; second lane: innate cleavage activity of E. coli topo IV (15 nM); third lane: effect of 20 µM CFX; subsequent lanes: effect of increasing compound concentration (0.1, 1, 10, 100 µM). […]
concentration. All experiments were carried out in triplicates and representative gels […]
(1 picture or pasted object on this page, not shown here)

[2] = target: T1, WT E. coli gyrase (Escherichia coli, UniProt P0AES4+P0AES6); experiment: biochemical; conditions: for % cleaved DNA Average: WT Gyrase
T1 construct: alternative cryo-EM approach involving full-length E. coli gyrase; 10-His (cleaved yes); Twin-Strep (cleaved yes); made in house
Protocol: (§2) For DNA gyrase supercoiling assays to characterize gyrase mutants, 15 µl reactions were set up containing 250 ng of relaxed DNA, E. coli gyrase supercoiling buffer (35 mM Tris–Cl pH 7.5, 24 mM KCl, 4 mM MgCl2, 2 mM DTT, 1.8 mM spermidine, 1 mM ATP, 6.0% (w/v) glycerol, and 0.1 mg ml^−1 BSA), gyrase subunits and inhibitors. Concentrations of enzyme and inhibitor are stated in the figure legends. Inhibitors were diluted in the following way to reduce the chance of precipitation: stock compound in 100% DMSO was diluted to 5 mM in 100% DMSO. This compound solution was diluted to 1 mM by stepwise addition of 1 µl of 50% DMSO with thorough mixing via pipetting after each addition. All subsequent dilutions up to 100 µM were performed in the same way using H2O. After this point, compounds were stable and could be diluted in the normal way. Reactions were incubated at 37 °C for 30 min before stopping with 15 µl chloroform:isoamyl alcohol (24:1 v/v) and 15 µl of STEB (40% (w/v) sucrose, 100 mM Tris–Cl pH 8, 10 mM EDTA, 0.5 mg ml^−1 bromophenol blue).
(§3) Cleavage assays were set up in the same way as supercoiling assays with some modifications. The concentration of enzyme was increased 4-fold relative to the supercoiling assay and reactions were incubated for 1 h before addition of 0.2% SDS and proteinase K (0.2 mg ml^−1) and further incubation at 37 °C for 30 min to trap cleavage complexes. Reactions were stopped in the same way as supercoiling assays.
as §1
(§4) DNA cleavage gels were analysed using densitometry (ImageJ). Experiments were carried out in triplicate and expressed as mean ± s.d. Curves were fitted using OriginPro 2021 (Origin Lab) according to a modified Hill equation:1 y=cI+(cF−cI)[…]/(k^n+x^n) where y is the percentage of cleaved DNA, cI is the initial cleavage, cF is the final cleavage, k is the CC50 (the concentration of inhibitor that results in cleavage of 50% of DNA), n is a slope factor and x is the inhibitor concentration.

[3] = target: T2, E. coli gyrase GyrB^K447W (Escherichia coli, UniProt P0AES4+P0AES6, K447W); experiment: DNA gyrase cleavage assay (CC50, % cleaved DNA); conditions: GyrBK447W; average of 3 independent assays
T2 construct: alternative cryo-EM approach involving full-length E. coli gyrase; 10-His (cleaved yes); Twin-Strep (cleaved yes); made in house
Protocol: as §2, §3, §1, §4

[4] = target: T3, E. coli gyrase GyrA^S83L (Escherichia coli, UniProt P0AES4+P0AES6, S83L); experiment: DNA gyrase cleavage assay (CC50, % cleaved DNA)
T3 construct: alternative cryo-EM approach involving full-length E. coli gyrase; 10-His (cleaved yes); Twin-Strep (cleaved yes); made in house
Protocol: as §2, §3, §1, §4

[5] = target: T4, E. coli gyrase GyrA^V70A (Escherichia coli, UniProt P0AES4+P0AES6, V70A); experiment: DNA gyrase cleavage assay (CC50, % cleaved DNA)
T4 construct: alternative cryo-EM approach involving full-length E. coli gyrase; 10-His (cleaved yes); Twin-Strep (cleaved yes); made in house
Protocol: as §2, §3, §1, §4

[6] = target: T5, E. coli gyrase GyrA^A67Q (Escherichia coli, UniProt P0AES4+P0AES6, A67Q); experiment: DNA gyrase cleavage assay (CC50, % cleaved DNA)
T5 construct: alternative cryo-EM approach involving full-length E. coli gyrase; 10-His (cleaved yes); Twin-Strep (cleaved yes); made in house
Protocol: as §2, §3, §1, §4

In the case of COc1c(NC(=O)c2ccc(NC(=O)c3ccc(NC(=O)[C@H](Cc4c[nH]nn4)NC(=O)c4ccc(NC(=O)c5ccc6nc(C)ccc6c5)cc4)cn3)c(OC)c2O)ccc(C(=O)O)c1O [Albi-3], the “concentration required for full inhibition of Topo IV relaxation activity” value [1] is reported as 10 µM, the “% cleaved DNA Average” value ([2]; Albi-3 0.001 µM) is reported as 5.372% and the “% cleaved DNA Average” value ([2]; Albi-3 0.005 µM) is reported as 11.5375%. For the same molecule, the “% cleaved DNA Average” value ([2]; Albi-3 0.01 µM) was 23.6152%, the “% cleaved DNA Average” value ([2]; Albi-3 0.05 µM) was 37.3347% and the “% cleaved DNA Average” value ([2]; Albi-3 0.1 µM) was 57.4394%. For the same molecule, the “% cleaved DNA Average” value ([2]; Albi-3 0.5 µM) was 62.8438%, the “% cleaved DNA Average” value ([2]; Albi-3 1 µM) was 66.0682% and the “% cleaved DNA Average” value ([2]; Albi-3 5 µM) was 61.2004%. The “% cleaved DNA Average” value ([2]; Albi-3 10 µM) was 61.7202%, the “% maximal cleavage” value ([2]; GyraseWT, average of 3 independent assays) was 66±4% and the EC50 ([2]; Gyrase^WT, mean ± s.d. of triplicate, read-out: CC50 (the source's name)) was 25 ± 5.3 nM. The “% maximal cleavage” value [3] was 69±2% and 69%, the “% maximal cleavage” value ([4]; GyrAS83L, average of 3 independent assays) was 85±7% and the EC50 ([4]; GyrA^S83L, mean ± s.d. of triplicate) was 16 ± 4 nM. The “% maximal cleavage” value ([5]; GyrAV70A, average of 3 independent assays) was 63±2%, the EC50 ([5]; GyrA^V70A, mean ± s.d. of triplicate) was 36 ± 8.6 nM and the “% maximal cleavage” value ([6]; GyrAA67Q, average of 3 independent assays) was 78±6%. It also gave an EC50 ([6]; GyrA^A67Q, mean ± s.d. of triplicate) of 328 ± 19 nM.
